The assay relates to 317291-083-R-J1-PDC complex spheroids, viability. As to the kind of experiment: Anticancer human tumor 317291-083-R-J1-PDC patient-derived soft tissue sarcoma cell line growth inhibition [GQUAD]. To be noted: for viability, T/C: stronger effect = lower value. The essentials: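 Viability of tumor cells grown as complex spheroids with endothelial and stromal cells, exposed to drug combinations. Top concentration at or near clinical Cmax (else 10 microM), diluted in half-log increments.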

Values joined by “and” are separate entries in the source; they are usually repeats but may differ in a detail not shown here. Identical values can stand only once. Where only a bound is given, the exact number is not on record here.
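Note: spheroids exposed to compounds for one week before readout.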
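Throughout, for viability, T/C: percent viability relative to DMSO vehicle wells taken as 100%.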

Regarding `CC(=O)O[C@H]1C(=O)[C@@]2(C)[C@H]([C@H](OC(=O)c3ccccc3)[C@]3(O)C[C@H](OC(=O)[C@H](O)[C@@H](NC(=O)c4ccccc4)c4ccccc4)C(C)=C1C3(C)C)[C@]1(OC(C)=O)CO[C@@H]1C[C@@H]2O` + Cc1[nH]c2ccc(F)cc2c1-c1nc2c3cccnc3c3ncccc3c2[nH]1, the IC50 was < 0.0316 µM (curve of first compound, second compound 0.0316 µM); < 0.0316 µM (curve of first compound, second compound 0.1 µM); < 0.0316 µM (curve of first compound, second compound 0.316 µM); < 0.0316 µM (curve of first compound, second compound 1 µM); < 0.0316 µM (curve of first compound, second compound 3.16 µM); < 0.0316 µM (curve of first compound, second compound 10 µM). The viability, T/C (second compound 0.0316 µM, first compound 0.0316 µM) was 45.6%; the viability, T/C (second compound 0.0316 µM, first compound 0.1 µM) is 19.7%; the viability, T/C (second compound 0.0316 µM, first compound 0.316 µM) was 15.5%; the viability, T/C (second compound 0.0316 µM, first compound 1 µM) was 16.5%; the viability, T/C (second compound 0.0316 µM, first compound 3.16 µM) was 13.9%; the viability, T/C (second compound 0.0316 µM, first compound 10 µM) is 12.1%. Also, the viability, T/C is, setting by setting: (second compound 0.1 µM, first compound 0.0316 µM) 46.6%; (second compound 0.1 µM, first compound 0.1 µM) 21.5%; (second compound 0.1 µM, first compound 0.316 µM) 12.2%; (second compound 0.1 µM, first compound 1 µM) 17.6%; (second compound 0.1 µM, first compound 3.16 µM) 15.1%; (second compound 0.1 µM, first compound 10 µM) 16.6%. The viability, T/C (second compound 0.316 µM, first compound 0.0316 µM) is 40%; the viability, T/C (second compound 0.316 µM, first compound 0.1 µM) was 18.9%; the viability, T/C (second compound 0.316 µM, first compound 0.316 µM) was 16.8%; the viability, T/C (second compound 0.316 µM, first compound 1 µM) is 15.3%; the viability, T/C (second compound 0.316 µM, first compound 3.16 µM) is 13.7%; the viability, T/C (second compound 0.316 µM, first compound 10 µM) is 16.1%. Further, the viability, T/C was 32.9% (second compound 1 µM, first compound 0.0316 µM); 18% (second compound 1 µM, first compound 0.1 µM); 17.2% (second compound 1 µM, first compound 0.316 µM); 17.7% (second compound 1 µM, first compound 1 µM); 16.1% (second compound 1 µM, first compound 3.16 µM); 12.7% (second compound 1 µM, first compound 10 µM). For the same molecule, the viability, T/C by setting is: (second compound 3.16 µM, first compound 0.0316 µM) 20.1%; (second compound 3.16 µM, first compound 0.1 µM) 11%; (second compound 3.16 µM, first compound 0.316 µM) 12.4%; (second compound 3.16 µM, first compound 1 µM) 11.6%; (second compound 3.16 µM, first compound 3.16 µM) 10.7%; (second compound 3.16 µM, first compound 10 µM) 8.8%. For the same molecule, the viability, T/C reads like this: (second compound 10 µM, first compound 0.0316 µM) 27%; (second compound 10 µM, first compound 0.1 µM) 17.1%; (second compound 10 µM, first compound 0.316 µM) 15.2%; (second compound 10 µM, first compound 1 µM) 14.7%; (second compound 10 µM, first compound 3.16 µM) 12.7%; (second compound 10 µM, first compound 10 µM) 12.5%.
In the case of `Nc1ccn(C2OC(CO)C(O)C2(F)F)c(=O)n1` (stereo unspecified), the viability, T/C by setting is: (compound 0.0316 µM) 55.7% and 53.6% and 61.2%; (compound 0.1 µM) 16.2% and 24.2% and 38%; (compound 0.316 µM) 16.1% and 12.7% and 9.59%; (compound 1 µM) 13.7% and 10.9% and 8.17%; (compound 3.16 µM) 10.1% and 14.3% and 9.39%; (compound 10 µM) 9.89% and 13.5% and 8.25%. For the same molecule, for the setting “curve of compound”, the IC50 was 0.0373 µM and 0.0363 µM and 0.0551 µM.
Consider `COc1ccc([C@@H](O)c2cc(-c3ncnc4cc(N5CCOCC5)ccc34)c(F)cc2Cl)nn1`, for which the viability, T/C (compound 0.0316 µM) is 95.9% and 104% and 114%; the viability, T/C (compound 0.1 µM) is 97.8% and 87.1% and 92.8%; the viability, T/C (compound 0.316 µM) was 103% (2×) and 99.2%; the viability, T/C (compound 1 µM) was 72.4% and 93.8% and 95%; the viability, T/C (compound 3.16 µM) was 74.5% and 61.3% and 76.2%; the viability, T/C (compound 10 µM) was 42.8% and 34.4% and 49.6%. Moreover, the IC50 (curve of compound) was 7.57 µM and 5.13 µM and > 10 µM.

Usually IC50 stands for the concentration needed to halve the response being measured. One may read the viability, T/C as the result in the treated group divided by that in the control group, in per cent.

Source of the values: PubChem BioAssay AID2060497 (Molecular Pharmacology Branch, DTP, NCI, 2025).
